Test results reported in patent US11109593B2, “Isoxazolin-5-one derivative and herbicide containing same as active ingredient” (HOKKO CHEMICAL INDUSTRY CO., LTD., priority 2017, dated 2021).

What was measured:
Format in all cases: in vivo
[1] = tested on: Echinochloa crus-galli; experiment: Test Example 4: herbicidal effect test by treatment of leave and stem in dry field farming (seven days after seeding); conditions: 120 g/10a active ingredient, emulsion sprayed seven days after seeding, evaluated 14 days after treatment; for pest or weed control at 1200 g/ha: Echinochloa crus-galli, 336 h, read-out: herbicidal effect (herbicidal rate), Echinochloa crus-galli
In short: (§1)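 Duplicate pots were scored 14 days post-spray by dry weight, herbicidal rate = {1 − treated/untreated average dry weight} × 100. The water-diluted emulsion, equivalent to 120 g active ingredient per 10 ares in 100 L, was applied seven days after sowing 20 seeds each into the upper 1 cm of alluvial soil.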

[2] = tested on: southern crabgrass; experiment: as above; conditions: 120 g/10a active ingredient, emulsion sprayed seven days after seeding, evaluated 14 days after treatment; for pest or weed control at 1200 g/ha: Digitaria ciliaris, 336 h, read-out: herbicidal effect (herbicidal rate), southern crabgrass
In short: as §1

[3] = tested on: Chenopodium album; experiment: as above; conditions: 120 g/10a active ingredient, emulsion sprayed seven days after seeding, evaluated 14 days after treatment; for pest or weed control at 1200 g/ha: Chenopodium album, 336 h, read-out: herbicidal effect (herbicidal rate), Chenopodium album
In short: as §1

[4] = tested on: Amaranthus viridis; experiment: as above; conditions: 120 g/10a active ingredient, emulsion sprayed seven days after seeding, evaluated 14 days after treatment; for pest or weed control at 1200 g/ha: Amaranthus viridis, 336 h, read-out: herbicidal effect (herbicidal rate), Amaranthus viridis
In short: as §1

[5] = tested on: Scirpus juncoides; experiment: Test Example 1: herbicidal effect test by treatment of rice paddy soil (immediately after seeding); conditions: 120 g/10a active ingredient, dry weight vs untreated area, 14 days after treatment; for pest or weed control at 1200 g/ha: in Schoenoplectiella juncoides, 336 h, read-out: Herbicidal rate (%) Scirpus juncoides
In short: (§2)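 Puddled, fertilized (N:P:K=17:17:17) paddy soil in Wagner pots; seeds sown 0–1 cm deep, flooded to about 3 cm. Emulsifiable formulations diluted in water and dropped into the water immediately after seeding at 120 g active ingredient per 10 ares; greenhouse. Herbicidal rate from dry weight vs untreated at 14 days.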

[6] = tested on: Echinochloa crus-galli; experiment: as above; conditions: 120 g/10a active ingredient, dry weight vs untreated area, 14 days after treatment; for pest or weed control at 1200 g/ha: in Echinochloa crus-galli, 336 h, read-out: Herbicidal rate (%) Echinochloa crus-galli
In short: as §2

[7] = tested on: broad leaf weeds (Lindernia pyxidaria and Monochoria vaginalis); experiment: as above; conditions: 120 g/10a active ingredient, dry weight vs untreated area, 14 days after treatment; for pest or weed control at 1200 g/ha: 336 h
In short: as §2

[8] = tested on: Echinochloa crus-galli; experiment: Test Example 3: herbicidal effect test by treatment of dry field farming soil (one day after seeding); conditions: 120 g/10a active ingredient, evaluated 14 days after treatment; for pest or weed control at 1200 g/ha: Echinochloa crus-galli, 336 h, read-out: herbicidal rate, Echinochloa crus-galli
In short: (§3)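 Compound emulsions are sprayed on the soil surface one day after sowing (120 g a.i. per 10 ares) before weeds emerge. Effect is expressed as percent dry-weight reduction versus untreated controls 14 days post-treatment.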

[9] = tested on: southern crabgrass; experiment: as above; conditions: 120 g/10a active ingredient, evaluated 14 days after treatment; for pest or weed control at 1200 g/ha: Digitaria ciliaris, 336 h, read-out: herbicidal rate, southern crabgrass
In short: as §3

[10] = tested on: Chenopodium album; experiment: as above; conditions: 120 g/10a active ingredient, evaluated 14 days after treatment; for pest or weed control at 1200 g/ha: Chenopodium album, 336 h, read-out: herbicidal rate, Chenopodium album
In short: as §3

[11] = tested on: Amaranthus viridis; experiment: as above; conditions: 120 g/10a active ingredient, evaluated 14 days after treatment; for pest or weed control at 1200 g/ha: Amaranthus viridis, 336 h, read-out: herbicidal rate, Amaranthus viridis
In short: as §3

[12] = tested on: Scirpus juncoides; experiment: Test Example 2: herbicidal effect test by treatment during growing period in paddy rice cultivation (seven days after seeding); conditions: 120 g/10a active ingredient, assessed 14 days after treatment, dry weight vs untreated area; for pest or weed control at 1200 g/ha: Schoenoplectiella juncoides, 336 h, read-out: herbicidal rate (%) Scirpus juncoides
In short: (§4)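 Greenhouse flooded-pot test, seeds sown in puddled paddy soil; emulsion applied into water 7 d after seeding, 120 g a.i./10 a. Dry-weight-based herbicidal rate at 14 d, n=2.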

[13] = tested on: Echinochloa crus-galli; experiment: as above; conditions: 120 g/10a active ingredient, assessed 14 days after treatment, dry weight vs untreated area; for pest or weed control at 1200 g/ha: Echinochloa crus-galli, 336 h, read-out: herbicidal rate (%) Echinochloa crus-galli
In short: as §4

[14] = tested on: broad leaf weeds (Lindernia pyxidaria and Monochoria vaginalis); experiment: as above; conditions: 120 g/10a active ingredient, assessed 14 days after treatment, dry weight vs untreated area; for pest or weed control at 1200 g/ha: 336 h
In short: as §4

[15] = Monochoria vaginalis, read-out: Herbicidal rate (%) Monochoria vaginalis
[16] = in Lindernia, Lindernia pyxidaria, read-out: Herbicidal rate (%) Lindernia pyxidaria
[17] = Lindernia pyxidaria, read-out: herbicidal rate (%) Lindernia pyxidaria
[18] = Monochoria vaginalis, read-out: herbicidal rate (%) Monochoria vaginalis

| Compound | herbicidal effect (herbicidal rate), Echinochloa crus-galli [1] [%] | herbicidal effect (herbicidal rate), southern crabgrass [2] [%] | herbicidal effect (herbicidal rate), Chenopodium album [3] [%] | herbicidal effect (herbicidal rate), Amaranthus viridis [4] [%] | Herbicidal rate (%) Scirpus juncoides [5] [%] | Herbicidal rate (%) Echinochloa crus-galli [6] [%] | Herbicidal rate (%) Lindernia pyxidaria ([7]; Lindernia pyxidaria) [%] | Herbicidal rate (%) Monochoria vaginalis ([7]; Monochoria vaginalis) [%] | herbicidal rate, Echinochloa crus-galli [8] [%] | herbicidal rate, southern crabgrass [9] [%] | herbicidal rate, Chenopodium album [10] [%] | herbicidal rate, Amaranthus viridis [11] [%] | Herbicidal rate (%) Scirpus juncoides [12] [%] | Herbicidal rate (%) Echinochloa crus-galli [13] [%] | Herbicidal rate (%) Lindernia pyxidaria ([14]; Lindernia pyxidaria) [%] | Herbicidal rate (%) Monochoria vaginalis ([14]; Monochoria vaginalis) [%] | also measured |
| --- | --- | --- | --- | --- | --- | --- | --- | --- | --- | --- | --- | --- | --- | --- | --- | --- | --- |
| CCS(=O)(=O)N(c1ccccc1Cc1c(C)n(C(C)c2ccccc2)oc1=O)S(=O)(=O)C(F)(F)F (stereo not shown) [Compound 1-917] | 90 | 90 | 40 | 40 | 90 | 90 | 90 | 90 | 90 | 90 | 90 | 90 | 90 | 90 | 90 | 90 |  |
| Cc1c(Cc2ccccc2N(S(=O)(=O)C(F)(F)F)S(=O)(=O)C(F)(F)F)c(=O)on1C(C)C [Compound 1-962] | 90 | 60 | 50 | 40 | 90 | 100 | 100 | 100 | 90 | 90 | 70 | 80 | 80 | 90 | 60 | 80 |  |
| Cc1c(Cc2ccccc2N(S(=O)(=O)C(F)(F)F)S(=O)(=O)C(F)(F)F)c(=O)on1C(C)(C)C [Compound 1-963, N-[2-[(2-tert-butyl-3-methyl-5-oxo-isoxazol-4-yl)methyl]phenyl]-1,1,1-trifluoro-N-(trifluoromethylsulfonyl)methanesulfonamide] |  |  |  |  |  |  |  |  |  |  |  |  |  |  |  |  | pest or weed control at 1200 g/ha [1]: 90%; pest or weed control at 1200 g/ha [2]: 90%; pest or weed control at 1200 g/ha [3]: 40%; pest or weed control at 1200 g/ha [4]: 40%; pest or weed control at 1200 g/ha [5]: 90%; pest or weed control at 1200 g/ha [6]: 90%; pest or weed control at 1200 g/ha [7, 15]: 90%; pest or weed control at 1200 g/ha [7, 16]: 90%; pest or weed control at 1200 g/ha [8]: 90%; pest or weed control at 1200 g/ha [9]: 90%; pest or weed control at 1200 g/ha [10]: 90%; pest or weed control at 1200 g/ha [11]: 90%; pest or weed control at 1200 g/ha [12]: 90%; pest or weed control at 1200 g/ha [13]: 90%; pest or weed control at 1200 g/ha [14, 17]: 90%; pest or weed control at 1200 g/ha [14, 18]: 90% |
| CCC(C)n1oc(=O)c(Cc2ccccc2N(S(=O)(=O)C(F)(F)F)S(=O)(=O)C(F)(F)F)c1C (stereo not shown) [Compound 1-964, 1,1,1-trifluoro-N-[2-[(3-methyl-5-oxo-2-sec-butyl-isoxazol-4-yl)methyl]phenyl]-N-(trifluoromethylsulfonyl)methanesulfonamide] |  |  |  |  |  |  |  |  |  |  |  |  |  |  |  |  | pest or weed control at 1200 g/ha [1]: 90%; pest or weed control at 1200 g/ha [2]: 60%; pest or weed control at 1200 g/ha [3]: 0%; pest or weed control at 1200 g/ha [4]: 40%; pest or weed control at 1200 g/ha [5]: 90%; pest or weed control at 1200 g/ha [6]: 90%; pest or weed control at 1200 g/ha [7, 15]: 100%; pest or weed control at 1200 g/ha [7, 16]: 100%; pest or weed control at 1200 g/ha [8]: 90%; pest or weed control at 1200 g/ha [9]: 90%; pest or weed control at 1200 g/ha [10]: 90%; pest or weed control at 1200 g/ha [11]: 90%; pest or weed control at 1200 g/ha [12]: 90%; pest or weed control at 1200 g/ha [13]: 90%; pest or weed control at 1200 g/ha [14, 17]: 90%; pest or weed control at 1200 g/ha [14, 18]: 90% |
| CCC(CC)n1oc(=O)c(Cc2ccccc2N(S(=O)(=O)C(F)(F)F)S(=O)(=O)C(F)(F)F)c1C [Compound 1-965] | 90 | 90 | 40 | 90 | 80 | 100 | 80 | 100 | 100 | 100 | 100 | 100 | 80 | 100 | 50 | 80 |  |
| Cc1c(Cc2ccccc2N(S(=O)(=O)C(F)(F)F)S(=O)(=O)C(F)(F)F)c(=O)on1CC(C)(C)C [Compound 1-968] | 90 | 90 | 40 | 40 | 90 | 90 | 90 | 90 | 90 | 90 | 90 | 90 | 90 | 90 | 90 | 90 |  |
| CCCC(C)n1oc(=O)c(Cc2ccccc2N(S(=O)(=O)C(F)(F)F)S(=O)(=O)C(F)(F)F)c1C (stereo not shown) [Compound 1-970] | 90 | 70 | 40 | 60 | 100 | 100 | 100 | 100 | 90 | 90 | 40 | 60 | 90 | 100 | 70 | 90 |  |
